The values that follow come from ChEMBL document CHEMBL1123824 (J Med Chem, 1987).

One assay deals with Substance-P receptor (Rattus norvegicus, UniProt P14600). Put plainly: Ability to inhibit the binding of [125I]physalaemin to the SP receptors in rat telencephalon slices.
In another assay the target is Adenosine receptor (Rattus norvegicus, UniProt P29276+P25099+P30543+P28647). The assay is described as follows: Ability to inhibit the binding of [3H]N6-phenylisopropyl adenosine to adenosine receptor in rat cerebral cortex membranes. The assay is classed as cell membranes, Membrane.

Where a SMILES comes first, the peptide text is derived from it. The star is where a group is joined. X1 = CCCN1C(=O)C2NC(c3ccc(OCC(=O)NCCNC(=O)C(N)CC(=O)*)cc3)=NC2N(CCC)C1=O; X2 = O=C(Cc1ccc(Nc2ncnc3c2ncn3[C@@H]2O[C@H](CO)[C@@H](O)[C@H]2O)cc1)* Some results are limits rather than exact numbers.

Sequence of Substance-P receptor (P14600 whole entry): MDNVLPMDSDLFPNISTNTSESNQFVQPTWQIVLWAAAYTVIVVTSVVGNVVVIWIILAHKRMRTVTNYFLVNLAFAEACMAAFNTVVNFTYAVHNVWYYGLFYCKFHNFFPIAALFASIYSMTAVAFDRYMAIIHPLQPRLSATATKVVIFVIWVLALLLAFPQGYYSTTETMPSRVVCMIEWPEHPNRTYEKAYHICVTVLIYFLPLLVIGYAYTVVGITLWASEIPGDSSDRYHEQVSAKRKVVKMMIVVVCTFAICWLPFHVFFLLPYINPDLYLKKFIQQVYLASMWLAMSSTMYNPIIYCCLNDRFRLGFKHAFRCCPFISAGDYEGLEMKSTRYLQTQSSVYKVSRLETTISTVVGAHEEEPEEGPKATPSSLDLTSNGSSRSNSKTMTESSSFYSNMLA

What is called Ki is a measure of affinity in units of concentration, obtained from inhibition or displacement. The low end stands for higher affinity, the high end for lower affinity. Consider `CSCC[C@H](NC(=O)[C@H](CC(C)C)NC(=O)CNC(=O)[C@H](Cc1ccccc1)NC(=O)[C@H](Cc1ccccc1)NC(C)=O)C(N)=O`, for which the Ki at Substance-P receptor was greater than 10 µM.

Consider `CSCC[C@@H](NC(=O)[C@H](CC(C)C)NC(=O)CNC(=O)[C@H](Cc1ccccc1)NC(=O)[C@H](Cc1ccccc1)NC(C)=O)C(N)=O`, for which the Ki on Adenosine receptor was greater than 30 µM.

Regarding `CSCC[C@H](NC(=O)[C@H](CC(C)C)NC(=O)CNC(=O)[C@H](Cc1ccccc1)NC(=O)[C@@H](N)Cc1ccccc1)C(N)=O`, the Ki at Substance-P receptor is greater than 10 µM.

On to `CSCC[C@@H](NC(=O)[C@H](CC(C)C)NC(=O)CNC(=O)[C@H](Cc1ccccc1)NC(=O)[C@@H](N)Cc1ccccc1)C(N)=O`, for which the Ki on Adenosine receptor is greater than 30 µM.

On to `CCCN1C(=O)C2NC(c3ccc(OCC(=O)NCCNC(=O)C(N)CC(=O)N[C@@H](Cc4ccccc4)C(=O)N[C@@H](Cc4ccccc4)C(=O)NCC(N)=O)cc3)=NC2N(CCC)C1=O` (stereo not given in full), for which the Ki on Substance-P receptor was greater than 10 µM; on Adenosine receptor it was 0.03 µM.

For the compound `CCCN1C(=O)C2NC(c3ccc(OCC(=O)NCCNC(=O)CN)cc3)=NC2N(CCC)C1=O` (stereo not given), the Ki was greater than 10 µM on Substance-P receptor and 0.0021 µM at Adenosine receptor.

`CCCN1C(=O)C2NC(c3ccc(OCC(=O)NCCNC(=O)C(N)CC(N)=O)cc3)=NC2N(CCC)C1=O` (stereo not given): at Adenosine receptor, the Ki came out at 0.0043 µM.

As for `CCCN1C(=O)C2NC(c3ccc(OCC(=O)NCCN)cc3)=NC2N(CCC)C1=O` (stereo not given), the Ki at Substance-P receptor is greater than 10 µM; on Adenosine receptor, 0.0012 µM.

In the case of `O=C(O)Cc1ccc(Nc2ncnc3c2ncn3C2O[C@H](CO)[C@@H](O)[C@H]2O)cc1` (stereo not given in full), at Adenosine receptor, the Ki was determined as 0.21 µM. This counts as sub-micromolar.

`CNC(=O)Cc1ccc(Nc2ncnc3c2ncn3C2O[C@H](CO)[C@@H](O)[C@H]2O)cc1` (stereo not given in full): on Substance-P receptor, the Ki was greater than 10 µM.

Turning to `CCCN1C(=O)C2NC(c3ccc(OCC(=O)NCCNC(=O)C(N)CC(=O)N[C@@H](Cc4ccccc4)C(=O)N[C@@H](Cc4ccccc4)C(=O)NCC(=O)N[C@@H](CC(C)C)C(=O)N[C@@H](CCSC)C(N)=O)cc3)=NC2N(CCC)C1=O` (stereo not given in full) (X1-FFGLM-NH2), the Ki at Substance-P receptor is 0.3 µM; on Adenosine receptor it was 0.035 µM.

On to `CSCC[C@H](NC(=O)[C@H](CC(C)C)NC(=O)CNC(=O)[C@H](Cc1ccccc1)NC(=O)[C@H](Cc1ccccc1)NC(=O)Cc1ccc(Nc2ncnc3c2ncn3[C@@H]2O[C@H](CO)[C@@H](O)[C@H]2O)cc1)C(N)=O` (X2-FFGLM-NH2), for which the figures for the Ki at Substance-P receptor and on Adenosine receptor were 2 µM and 0.016 µM, respectively.

The compound `CSCC[C@H](NC(=O)[C@H](CC(C)C)NC(=O)CNC(=O)[C@H](Cc1ccccc1)NC(=O)[C@H](Cc1ccccc1)NC(=O)[C@H](CCC(N)=O)NC(=O)[C@H](CCC(N)=O)NC(=O)[C@@H]1CCCN1C(=O)[C@H](CCCCN)NC(=O)[C@@H]1CCCN1C(=O)[C@@H](N)CCCN=C(N)N)C(N)=O` [SUBSTANCE P] showed a Ki at Adenosine receptor greater than 30 µM.

The compound H-QFFGLM-NH2 yielded a Ki on Substance-P receptor of 0.45 µM. This lies in the sub-micromolar range.

At Substance-P receptor, H-QQFFGLM-NH2 gave a Ki of 0.18 µM.
